Earlier results as cited in publication PMC3726058 (European journal of pharmacology, 2010).

Columns and labels:
σ1 over the σ2 subtype = conditions: ref Bowen, 1993
histamine H1 = conditions: read-out: Ki H1; ref Yous et al., 2005
adrenergic α2 = conditions: read-out: Ki α2; ref Yous et al., 2005
σ1 versus σ2 = conditions: rat brain membranes; ref Klouz et al., 2003; Matsuno et al., 1996

Structure (SMILES): CC(C)=CCN1CC[C@]2(C)c3cc(O)ccc3C[C@H]1[C@H]2C [[^3H](+)-Pentazocine]
- preference for σ1 over σ2 subtype (σ1 over the σ2 subtype): > 700 fold

Structure (SMILES): CCCc1ccc2c(c1)sc(=O)n2CCN1CCCCCC1 [SN56, 3-(2-(azepan-1-yl)ethyl)-6-propylbenzo[d]thiazol-2(3H)-one]
- Ki (histamine H1): 311 nM
- Ki (adrenergic α2): 205 nM

Structure (SMILES): COc1ccc(CCN2CCN(CCCc3ccccc3)CC2)cc1OC [SA4503]
- affinity for σ1 versus σ2 (σ1 versus σ2): approximately 100 fold

Structure (SMILES): COc1ccc(CN2CCN(Cc3ccccc3)CC2)c(O)c1OC [BHDP]
- affinity for σ1 versus σ2 (σ1 versus σ2): approximately 100 fold
